Test results: patent publication US20180206495A1, “SUBSTITUTED ARYL AND HETEROARYL CARBOXYLIC ACID HYDRAZIDES OR SALTS THEREOF AND USE THEREOF TO INCREASE STRESS TOLERANCE IN PLANTS” (BAYER CROPSCIENCE AKTIENGESELLSCHAFT, priority 2015, published 2018)

Legend:
Triticum aestivum [1] = assay: In vivo analyses Part B: drought stress, spray application, appearance vs stressed control in categories, Triticum aestivum; design: key: 0: no positive effect; +: slight positive effect; ++: clear positive effect; +++: strong positive effect; settings: dosage 250 g/ha
Procedure: Seeds of monocotyledonous and dicotyledonous crop plants were sown in sandy loam in plastic pots, covered with soil or sand and cultivated in a greenhouse under good growth conditions. The test plants are treated at the early leaf stage (BBCH10-BBCH13). To assure uniform water supply before commencement of stress, the potted plants were supplied with water by dam irrigation prior to substance application. The inventive compounds were first formulated as wettable powders (WP) or dissolved in a solvent mixture. The further dilution was effected with water supplemented with 0.2% wetting agent (e.g. agrotin). The finished spray liquor was sprayed onto the green parts of the plant at an equivalent water application rate of 600 l/ha. Substance application was followed immediately by stress treatment of the plants. Drought stress was induced by gradual drying out under the following conditions: “Day”: 14 hours with illumination at ˜26-30° C. “Night”: 10 hours without illumination at ˜18-20° C. The duration of the respective stress phases was guided mainly by the condition of the stressed control plants. It was ended (by re-irrigating and transfer to a greenhouse with good growth conditions) as soon as irreversible damage was observed on the stressed control plants. The end of the stress phase was followed by an about 4-7-day recovery phase, during which the plants were once again kept under good growth conditions in a greenhouse. The duration of the recovery phase was guided mainly by when the trial plants had attained a state which enabled visual scoring of potential effects, and was therefore variable. Once this juncture had been reached, the appearance of the plants treated with test substances was recorded in comparison to the stressed control plants by the following categories: • 0 no positive effect • + slight positive effect • ++ clear positive effect • +++ strong positive effect In order to rule out any influence on the effects observed by any fungicidal or insecticidal action of the test compounds, it was additionally ensured that the tests proceeded without fungal infection or insect infestation. The values reported in tables B-1 and B-2 below are mean values of the results from at least three repeats. Effects of selected compounds of the general formula (I) under drought stress according to the following tables B-1 and B-2: […]

Zea mays = assay: In vivo analyses Part A: drought stress, spray application, visual damage scoring, Zea mays; settings: dosage 250 g/ha
Procedure: (§1) Seeds of monocotyledonous and dicotyledonous crop plants were sown in sandy loam in wood-fiber or plastic pots, covered with soil or sand and cultivated in a greenhouse under good growth conditions. The trial plants were treated at the early leaf stage (BBCH10-BBCH13). To assure uniform water supply before commencement of stress, the potted plants were supplied with water by dam irrigation prior to substance application. The inventive compounds formulated in the form of wettable powders (WP) were sprayed onto the green parts of the plants as an aqueous suspension at an equivalent water application rate of 600 l/ha with addition of 0.2% wetting agent (e.g. agrotin). Substance application was followed immediately by stress treatment of the plants. For this purpose, the wood-fiber pots were transferred in plastic inserts in order to prevent them from subsequently drying out too quickly. Drought stress was induced by gradual drying out under the following conditions: “Day”: 14 hours with illumination at ˜26-30° C. “Night”: 10 hours without illumination at ˜18-20° C. The duration of the respective stress phases was guided mainly by the condition of the stressed control plants. It was ended (by re-irrigating and transfer to a greenhouse with good growth conditions) as soon as irreversible damage was observed on the stressed control plants. The end of the stress phase was followed by an about 4-7-day recovery phase, during which the plants were once again kept under good growth conditions in a greenhouse. The duration of the recovery phase was guided mainly by when the trial plants had attained a state which enabled visual scoring of potential effects, and is therefore variable. Once this juncture was reached, the intensities of damage were scored visually in comparison to untreated, unstressed controls of the same age. The damage intensity was at first assessed in per cent. These values were then used to calculate the efficacy of the test compounds by the following formula: [formula] EF: Efficacy DIs: Damage intensity of the stressed control plants DIt: Damage intensity of the stressed plants treated with test compound The values reported in tables A-1 to A-3 below are mean values from at least one trial with at least two repeats, showing the effects of selected compounds of the general formula (I) under drought stress on various crop plants.

Brassica napus = assay: In vivo analyses Part A: drought stress, spray application, visual damage scoring, Brassica napus
Procedure: as §1

Triticum aestivum [2] = assay: In vivo analyses Part A: drought stress, spray application, visual damage scoring, Triticum aestivum; settings: dosage 250 g/ha
Procedure: as §1

| Compound | Effect (TRZAS) (Triticum aestivum [1]) | EF [%] (ZEAMX) (Zea mays) | EF [%] (BRSNS) (Brassica napus; dosage 2.5 g/ha) | EF [%] (TRZAS) (Triticum aestivum [2]) | EF [%] (BRSNS) (Brassica napus; dosage 25 g/ha) |
| --- | --- | --- | --- | --- | --- |
| CN(C)N(Cc1nccc(Cl)c1Cl)C(=O)c1ccccc1C(F)(F)F [A1-40, N-[(3,4-Dichloropyridin-2-yl)methyl]-N′,N′-dimethyl-2-(trifluoromethyl)benzohydrazide] | ++ | >5% | >5% | >5% | – |
| Cc1ccc(C(F)(F)F)c(C(=O)N(Cc2ccccn2)N(C)C)c1 [A13-21] | – | >5% | – | >5% | >5% |
| CN(C)N(Cc1ccc(Br)cc1F)C(=O)c1ccc(Cl)cc1Cl [A12-44] | – | >5% | – | >5% | >5% |
